The values that follow are results of earlier work, collected in patent US6440395B1, “Antiplaque mouth rinse” (priority 1992, dated 2002).

The structures appear in SMILES notation.

As to `CCCCCCCCCCCCCCCC[n+]1ccccc1` [CPC, cetyl pyridinium chloride], the “solubility in water and alcohol” value (water and alcohol, stated in words) is “highly soluble”.

`Oc1cc(Cl)ccc1Oc1ccc(Cl)cc1Cl` [Triclosan, 2,4,4′-trichloro-2′-hydroxydiphenyl ether]: the solubility in water result (in water at 25° C.) is “less than 1 % by weight”.
